The results in this text go back to PubChem BioAssay AID1645848.

In brackets after ≈: the same amount, converted by molar mass.

The conditions of the series: buffer; pH 7.4; 6.0 h; 150.0 µM.
Turning to `O=C(NC1CCCc2c1[nH]c1c(Cl)cccc21)c1ccc2c(c1)OCO2` (stereo not given), the solubility (kinetic) (commonly solubility judged after dilution from a stock solution rather than from solid) was under 1 µg/mL.
The same measure for `Cc1cc(C)c(C(=O)Nc2cccc([S+](=O)([O-])N3CCCCC3)c2)[nH]1`: under 1 µg/mL.
The same measure for `Cc1cccc2nc(-c3cccnc3)c(Nc3ccc(C(C)C)cc3)n12`: under 1 µg/mL; for `Cc1[nH]c2ccccc2c1CN1CCN(c2ccccn2)CC1`: 34.4 µg/mL (≈ 112 µM); for `COc1ccc(-c2nc3ccccc3s2)cc1NC(=O)c1ccc(F)cc1`: under 1 µg/mL.
Compound `CC(=O)Nc1ccc(C(=O)Nc2ccccc2N)cc1` gave a kinetic solubility of over 40 µg/mL.
The same measure for `COc1ccc(-c2ccc3nc(-c4cc(F)cc(F)c4F)oc3c2)c(OC)c1OC`: under 1 µg/mL.
The same measure for `COc1ccc(C(=O)NC2CCCc3c2[nH]c2c(Cl)cccc32)cc1OC` (stereo not given): 1.14 µg/mL (≈ 2.95 µM); for `CC(=O)c1c(C)[nH]c(C(=O)Nc2cccc(S(=O)(=O)N3CCCCC3)c2)c1C`: 4.57 µg/mL (≈ 11.3 µM).
Under `CCc1ccc2ncc(C(=O)c3ccc(C)c(C)c3)c(N3CCC(C(N)=O)CC3)c2c1` stands 2.27 µg/mL (≈ 5.47 µM); under `Nc1ncc(S(=O)(=O)N2CCOCC2)s1`, over 37 µg/mL.
`NC(=O)C1CCN(c2ncnc(-c3ccc4c(c3)OCCCO4)n2)CC1` registered a kinetic solubility of over 52 µg/mL.
The same measure for `Cc1cc(-c2nnc3n2CCCCC3)c(C)n1-c1cccc(C#N)c1`: over 49 µg/mL; for `COc1cccc(CN2CCCC(c3nc(-c4ccncc4)ncc3-c3ccccc3)C2)c1O` (stereo not given): 4.29 µg/mL (≈ 9.47 µM); for `c1ccc(Nc2cc3c(cn2)CN(Cc2c[nH]c4ccccc24)CCN3)cc1`: 43.7 µg/mL (≈ 118 µM).
For `O=C(CCc1ccccc1)NC(c1cccs1)c1cc(Cl)c2cccnc2c1O` (stereo not given), the solubility (kinetic) was under 1 µg/mL.
The same measure for `CN(C)c1cccc(-c2cnc(Nc3cccnc3)c3c2CCO3)c1`: under 1 µg/mL.
The same measure for `Cc1ccc(-n2c(C)cc(-c3nnc4n3CCCCC4)c2C)cc1`: 27.8 µg/mL (≈ 86.6 µM).
The same measure for `COc1cc(/C=C2\C(=O)Nc3ccccc32)ccc1O`: 15 µg/mL (≈ 56 µM).
In turn, `Cc1cc(C)nc(NC(=S)N2CCN(c3ccc(C(F)(F)F)cc3Cl)CC2)c1` came in with a kinetic solubility of 3.08 µg/mL (≈ 7.19 µM).
On to `Nc1ncc(S(=O)(=O)N2CCN(c3ccccc3)CC2)cn1`, for which the kinetic solubility was found to be 1.13 µg/mL (≈ 3.53 µM). This solubility kinetic is about 2.7-fold lower than that of the compound before.
For `Cc1nc2nc(NC(=O)c3ccc(C(C)(C)C)cc3)[nH]n2c(=O)c1Cl`, the solubility (kinetic) is 14.7 µg/mL (≈ 40.8 µM).
Under `COc1ccc(S(=O)(=O)N2CCOCC2)cc1NC(=O)c1cccc(-n2cccc2)c1` stands 6.13 µg/mL (≈ 13.9 µM); under `CCN(CC)CCCCNc1ncc2cc(-c3c(Cl)cccc3Cl)c(NC(=O)NC(C)(C)C)nc2n1`, 34.7 µg/mL (≈ 65.2 µM).
Under `COc1ccc(-c2cn[nH]c2-c2ccc(OC)cc2)cc1` stands 4.26 µg/mL (≈ 15.2 µM).
`CN[C@@H](C)C(=O)N[C@@H]1C(=O)N(Cc2c(C)ccc3ccccc23)c2ccc(C#N)cc2N(C(C)=O)[C@H]1C` gave a kinetic solubility of over 73 µg/mL.
The compound `Fc1cc(Nc2nc(-c3ccncc3)nc3ccccc23)ccc1-c1ccc2[nH]ncc2c1` had a solubility (kinetic) of under 1 µg/mL.
Under `Cc1ccccc1OCC(O)CO` (stereo not given) stands over 27 µg/mL.
For the compound `c1ccc(-c2nc(N3CCCCCC3)c3ccccc3n2)nc1`, the kinetic solubility is over 45 µg/mL.
The same measure for `Brc1ccc(-c2csc(N3CCNCC3)n2)cc1`: 6.59 µg/mL (≈ 20.3 µM); for `O=C(Nc1cccc(Cc2ccccc2)n1)c1ccc(-c2cccc([N+](=O)[O-])c2)o1`: 2.73 µg/mL (≈ 6.84 µM).
Under `CN(C(=O)CNC(=O)c1cc(F)ccc1OCC(=O)Nc1ccc(I)cc1)c1ccc(F)cc1` stands under 1 µg/mL; under `COc1cc(Cl)c(C)cc1NC(=O)CSc1ncc(S(=O)(=O)c2ccc(C(C)(C)C)cc2)c(=O)[nH]1`, under 1 µg/mL; under `CCOc1ccc(-c2nnc(SCC(=O)NCc3ccccc3Cl)o2)cc1`, under 1 µg/mL.
The same measure for `CCc1cccc(NC(=O)c2cc(-c3ccc[nH]3)n[nH]2)c1`: 4.59 µg/mL (≈ 16.4 µM).
As to `CN(C)CC(=O)NC1CCCc2c1cnn2-c1ccc(F)cc1F` (stereo not given), the solubility (kinetic) is over 33 µg/mL.
Under `CCc1ccccc1OC[C@@H](O)CN[C@H]1CCCc2ccccc21` stands 36 µg/mL (≈ 111 µM); under `Cn1c(=O)c2[nH]c(=O)[nH]c2n(C)c1=O`, over 29 µg/mL; under `COCc1cc(C)nc(SCC(=O)c2ccc(O)c(O)c2)c1C#N`, 13.2 µg/mL (≈ 38.2 µM).
The same measure for `O=C(c1ccc2ccccc2c1)N1CCN(c2ccc(O)cc2)CC1`: 27.5 µg/mL (≈ 82.7 µM); for `Cc1cc(-c2nnc3n2CCCCC3)c(C)n1-c1ccc(F)cc1`: 35.3 µg/mL (≈ 109 µM).
Compound `Cc1ccccc1C(=O)N1CCc2cc(-n3cc(NC(=O)Cc4ccccc4)cn3)ccc21` displayed a solubility (kinetic) of under 1 µg/mL.
On to `COc1cccc(NC(=S)N2CCN(c3cccc(C(F)(F)F)c3)CC2)n1`, for which the solubility (kinetic) came out at 0.435 µg/mL (≈ 1.1 µM).
Under `Cc1noc(/C=C/c2ccccc2F)c1S(=O)(=O)N1CCC(C(=O)Nc2ccc(C#N)cc2)CC1` stands under 1 µg/mL; under `COC(=O)C1=C(C)NC(=O)CC1C(=O)Nc1ccc(Cl)cc1` (stereo not given), 31.2 µg/mL (≈ 96.8 µM); under `Cc1ccc(S(=O)(=O)Nc2cnccc2C(=O)Nc2nc(-c3ccc(Cl)cc3)cs2)cc1`, under 1 µg/mL.
Turning to `NC(=O)C1CCN(c2nc(-c3ccc(Oc4ccccc4)cc3)cs2)CC1`, the kinetic solubility is under 1 µg/mL.
For `CCCSc1nc(N[C@@H]2C[C@H]2c2ccc(F)c(F)c2)c2nnn([C@@H]3C[C@H](OCCO)[C@@H](O)[C@H]3O)c2n1`, the solubility (kinetic) was under 1 µg/mL.
Regarding `CCOC(=O)c1ccc(NC(=O)CSc2nc3c(cc2C#N)N2CCC3CC2)cc1`, the solubility (kinetic) was 1.15 µg/mL (≈ 2.71 µM).
The same measure for `CN(c1ncccc1CNc1nc(Nc2ccc3c(c2)CC(=O)N3)ncc1C(F)(F)F)S(C)(=O)=O`: 51.7 µg/mL (≈ 102 µM); for `OC(CCN1CCCCC1)c1ccc(-c2ccccc2)cc1` (stereo not given): over 44 µg/mL; for `Cc1csc2nc(-c3cccc(NC(=O)c4cccc(F)c4)c3)cn12`: under 1 µg/mL.
For the compound `Nc1c(C(=O)Nc2ccc(Cl)c(C(F)(F)F)c2)sc2nc3c(cc12)N1CCC3CC1`, the kinetic solubility is under 1 µg/mL.
With `Cc1ccc(S(=O)(=O)Nc2cnccc2C(=O)Nc2nc(-c3ccc(F)cc3)cs2)cc1`, the solubility (kinetic) was under 1 µg/mL.
Take `Cc1nn(-c2ccccc2)c2nc(C3CC3)cc(C(=O)Nc3ccc(F)cc3)c12`: the solubility (kinetic) is under 1 µg/mL.
Under `COc1ccc(NC2CCCN(C(=O)CCc3ccccc3F)C2)cc1` (stereo not given) stands 41.3 µg/mL (≈ 116 µM).
Compound `Fc1ccc(Nc2nc(-c3ccncc3Cl)nc3ccccc23)cc1F` yielded a solubility (kinetic) of under 1 µg/mL.
Turning to `N#Cc1cccc(NC(=O)c2sc3nc4c(cc3c2N)N2CCC4CC2)c1`, the kinetic solubility was determined as 5.07 µg/mL (≈ 13.5 µM).
Consider `c1ccc2c(NC3CCCCC3)nc(-c3ccncc3)nc2c1`, for which the solubility (kinetic) was under 1 µg/mL.
The same measure for `Cc1cc(-c2nnc3n2CCCCC3)c(C)n1-c1cccnc1`: 32.5 µg/mL (≈ 106 µM).
The compound `Nc1ncccc1-c1nc2ccc(-c3ccccc3)nc2n1-c1ccc(C2(N)CCC2)cc1` returned a kinetic solubility of over 64 µg/mL.
Under `N#CC1(c2ccc(NC(=O)c3cccnc3NCc3ccncc3)cc2)CCCC1` stands under 1 µg/mL; under `Cc1ccnc(N=C(N)N2CCN(c3cccc(C(F)(F)F)c3)CC2)c1`, 24.4 µg/mL (≈ 67.2 µM); under `CC(C)(O)CNc1nc(Nc2ccnc(C(F)(F)F)c2)nc(-c2cccc(C(F)(F)F)n2)n1`, 11 µg/mL (≈ 23.2 µM).
Consider `O=c1c(-c2cccs2)ccc2n1C[C@H]1C[C@@H]2CN(C2CCOCC2)C1`, for which the solubility (kinetic) was over 79 µg/mL.
